Reference: ChEMBL document CHEMBL1124596, “Introduction of a putative dopaminergic prodrug moiety into a 6,7-substitution pattern characteristic of certain 2-aminotetralin dopaminergic agonists” (1989)

System: Felis catus
Assay: Inhibition of cat cardiac response to cardioaccelerator nerve stimulation, when administered intravenously
Format: functional
Details: iv, read-out: ID50 (the source's name)

Row | SMILES | ED50
1 | CCCN(CCC)C1CCc2c(ccc(C)c2O)C1 (centres undefined) | 0.25 µmol/kg
2 | CCCN(CCC)C1CCc2cc(O)c(C)cc2C1 (centres undefined) | 1.75 µmol/kg
3 | CN1CCc2cccc3c2[C@H]1Cc1ccc(O)c(O)c1-3 [APOMORPHINE] | 0.035 µmol/kg
4 | CCCN(CCC)C1CCc2cc(C)c(O)cc2C1 (centres undefined) | 0.54 µmol/kg
